The structures appear in SMILES notation. Where a name gives a salt, the structure may show the parent alone.

IC50 data for 35 molecules are collected here from patent US20240228463A1, “SODIUM CHANNEL INHIBITORS AND METHODS OF DESIGNING SAME” (Genentech, Inc., priority 2021, published 2024).

The test deals with T1, hNaV1.7 (Homo sapiens, UniProt Q15858).
T1 construct: expressed in transfected cells
T1 sequence (Q15858 1-1977 isoform Q15858-3): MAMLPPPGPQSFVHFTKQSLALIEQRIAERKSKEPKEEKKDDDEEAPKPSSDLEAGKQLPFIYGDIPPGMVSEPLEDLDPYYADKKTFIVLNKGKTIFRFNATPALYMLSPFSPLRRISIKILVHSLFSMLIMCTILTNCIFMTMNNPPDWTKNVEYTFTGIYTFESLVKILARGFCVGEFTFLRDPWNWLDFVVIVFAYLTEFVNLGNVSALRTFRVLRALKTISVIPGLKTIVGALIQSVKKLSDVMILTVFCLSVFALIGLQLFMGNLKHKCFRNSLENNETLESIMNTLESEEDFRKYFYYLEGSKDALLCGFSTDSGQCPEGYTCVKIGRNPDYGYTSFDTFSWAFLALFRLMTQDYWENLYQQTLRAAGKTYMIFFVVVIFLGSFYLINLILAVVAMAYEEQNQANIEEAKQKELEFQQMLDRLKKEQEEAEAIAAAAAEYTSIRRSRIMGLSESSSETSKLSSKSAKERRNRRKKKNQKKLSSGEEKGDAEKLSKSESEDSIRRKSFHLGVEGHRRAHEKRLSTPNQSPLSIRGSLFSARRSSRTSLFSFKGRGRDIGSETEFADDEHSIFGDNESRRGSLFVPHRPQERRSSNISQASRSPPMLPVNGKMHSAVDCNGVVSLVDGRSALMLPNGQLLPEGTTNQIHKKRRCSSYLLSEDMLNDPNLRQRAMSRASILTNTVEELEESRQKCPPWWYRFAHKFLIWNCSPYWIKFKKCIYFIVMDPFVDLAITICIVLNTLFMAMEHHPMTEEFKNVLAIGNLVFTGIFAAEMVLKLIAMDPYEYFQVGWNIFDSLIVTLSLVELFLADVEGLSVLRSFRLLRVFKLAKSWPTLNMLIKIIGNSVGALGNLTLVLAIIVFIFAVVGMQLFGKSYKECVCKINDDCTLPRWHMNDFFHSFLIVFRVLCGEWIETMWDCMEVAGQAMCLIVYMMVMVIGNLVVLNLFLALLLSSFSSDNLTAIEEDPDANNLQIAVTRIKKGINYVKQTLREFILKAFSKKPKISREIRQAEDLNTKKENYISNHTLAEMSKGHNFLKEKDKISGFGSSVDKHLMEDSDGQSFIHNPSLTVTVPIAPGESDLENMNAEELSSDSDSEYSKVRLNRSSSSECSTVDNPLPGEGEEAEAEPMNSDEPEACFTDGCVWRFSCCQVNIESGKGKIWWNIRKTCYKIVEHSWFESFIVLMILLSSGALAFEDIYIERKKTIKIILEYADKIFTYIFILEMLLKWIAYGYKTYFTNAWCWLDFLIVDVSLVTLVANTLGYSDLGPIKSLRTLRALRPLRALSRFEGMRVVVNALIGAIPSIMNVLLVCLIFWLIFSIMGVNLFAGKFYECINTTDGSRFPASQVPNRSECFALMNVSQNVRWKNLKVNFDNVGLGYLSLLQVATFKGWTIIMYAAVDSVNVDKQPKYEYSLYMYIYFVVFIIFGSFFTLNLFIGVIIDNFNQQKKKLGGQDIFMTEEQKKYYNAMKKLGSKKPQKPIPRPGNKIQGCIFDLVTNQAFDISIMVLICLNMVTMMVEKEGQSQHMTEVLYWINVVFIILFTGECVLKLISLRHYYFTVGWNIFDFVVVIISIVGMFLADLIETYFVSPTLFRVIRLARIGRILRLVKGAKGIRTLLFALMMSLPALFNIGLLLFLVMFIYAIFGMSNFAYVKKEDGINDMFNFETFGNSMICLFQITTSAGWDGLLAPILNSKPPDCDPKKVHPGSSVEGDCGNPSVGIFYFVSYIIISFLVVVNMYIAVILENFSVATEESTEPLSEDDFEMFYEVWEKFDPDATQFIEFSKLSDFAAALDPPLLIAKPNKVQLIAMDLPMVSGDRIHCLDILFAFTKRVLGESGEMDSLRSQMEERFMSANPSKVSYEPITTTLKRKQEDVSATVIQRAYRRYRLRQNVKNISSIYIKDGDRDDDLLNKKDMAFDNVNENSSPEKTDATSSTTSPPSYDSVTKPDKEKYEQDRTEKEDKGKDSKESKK
Description: Patch voltage clamp electrophysiology (EP), Syncropatch 384PE, Nav1.7 in CHO cells.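 Also: Nav1.7 stably expressed from cDNA in CHO cells, holding potential of −50 mV kept for the entire experiment.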 Format: cell-based. The conditions noted are these: holding potential −50 mV, inhibition based on 7.5 min compound incubation, read-out: hNaV1.7 EP_SP.
Take `O=C(NS(=O)(=O)N1CC(O[C@@H]2CCNC2)C1)c1cc(Cl)c(OCC2CCCC2)cc1F` (single isomer, unassigned) [Example 31, 2,2,2-trifluoroacetate]: the IC50 was determined as 390 nM.
On to `CN(C)[C@H]1CCCC[C@@H]1Nc1ccc(S(=O)(=O)Nc2nc3ccc(OCC4CCCC4)c(Cl)c3s2)c(F)c1` [Example 333, N-(7-chloro-6-(cyclopentylmethoxy)benzo[d]thiazol-2-yl)-4-(((1S,2S)-2-(dimethylamino)cyclohexyl)amino)-2-fluorobenzenesulfonamide], for which the IC50 is 65 nM.
The value for `CN(C)[C@H]1CCCC[C@@H]1Oc1ccc(S(=O)(=O)NC(=O)c2cc(Cl)c(OCC3CCCC3)cc2F)c(F)c1` [Example 66, 5-chloro-4-(cyclopentylmethoxy)-N-((4-(((1S,2S)-2-(dimethylamino)-cyclohexyl)oxy)-2-fluorophenyl)sulfonyl)-2-fluorobenzamide] was 220 nM; that for `O=C(NS(=O)(=O)c1ccc2c(c1)NCCC2)c1cc(Cl)c(OCC2CCCC2)cc1F` [Example 267, 5-chloro-4-(cyclopentylmethoxy)-2-fluoro-N-((1,2,3,4-tetrahydroquinolin-7-yl)sulfonyl)benzamide] was 800 nM.
The value for `O=C(NS(=O)(=O)c1c(F)cc(N2CCCCC2)cc1F)c1cc(Cl)c(OCC2CCCC2)cc1F` [Example 58, 5-chloro-4-(cyclopentylmethoxy)-N-((2,6-difluoro-4-(piperidin-1-yl)phenyl)-sulfonyl)-2-fluorobenzamide] was 320 nM; that for `O=C(NS(=O)(=O)C1CCCCC1)c1cc(Cl)c(OCC2CCCC2)cc1F` [Example 82, 5-chloro-N-(cyclohexylsulfonyl)-4-(cyclopentylmethoxy)-2-fluorobenzamide] was 30 nM; that for `COc1cccc(COc2ccc(S(=O)(=O)NC(=O)c3cc(Cl)c(OCC4CCCC4)cc3F)cc2)c1` [Example 308, 5-chloro-4-(cyclopentylmethoxy)-2-fluoro-N-((4-((3-methoxybenzyl)oxy)phenyl)sulfonyl)benzamide] was 100 nM.
In the case of `O=C(NS(=O)(=O)c1ccc(C(F)(F)F)cc1)c1cc(Cl)c(OCC2CCCC2)cc1F` [Example 283, 5-chloro-4-(cyclopentylmethoxy)-2-fluoro-N-((4-(trifluoromethyl)phenyl)sulfonyl)benzamide] it was 620 nM; in that of `CN1CC[C@H](OC2CCN(S(=O)(=O)NC(=O)c3cc(Cl)c(OCC4CCCC4)cc3F)CC2)C1` (single isomer, unassigned) [Example 326], 230 nM; in that of `O=C(NS(=O)(=O)N1CCCCCC1)c1cc(Cl)c(OCC2CCCC2)cc1F` [Example 227, N-(azepan-1-ylsulfonyl)-5-chloro-4-(cyclopentylmethoxy)-2-fluorobenzamide], 20 nM.
Take `CN(C)[C@H]1CCCC[C@@H]1Nc1ccc(S(=O)(=O)Nc2nc3ccc(OCC4CCCC4)cc3s2)c(F)c1` [Example 96, N-(6-(cyclopentylmethoxy)benzo[d]thiazol-2-yl)-4-(((1S,2S)-2-(dimethyl-amino)cyclohexyl)-amino)-2-fluorobenzenesulfonamide formate]: the IC50 is 8.8 nM.
In the case of `COc1ccccc1S(=O)(=O)NC(=O)c1cc(Cl)c(OCC2CCCC2)cc1F` [Example 246, 5-chloro-4-(cyclopentylmethoxy)-2-fluoro-N-((2-methoxyphenyl)sulfonyl)benzamide] it was 230 nM; in that of `O=C(NS(=O)(=O)N1CCC(OCc2ccccc2)CC1)c1cc(Cl)c(OCC2CCCC2)cc1F` [Example 41, N-((4-(benzyloxy)piperidin-1-yl)sulfonyl)-5-chloro-4-(cyclopentylmethoxy)-2-fluorobenzamide], 170 nM; in that of `O=C(NS(=O)(=O)N1CCCCC1)c1cc(Cl)c(OCC2CCCC2)cc1F` [Example 21, 5-chloro-4-(cyclopentylmethoxy)-2-fluoro-N-(piperidin-1-ylsulfonyl)benzamide], 14 nM.
In the case of `CC(C)c1cc(C(=O)NS(=O)(=O)N2CCC(OC3CN(C)C3)CC2)c(F)cc1OCC1CCCC1` [Example 5, 4-(cyclopentylmethoxy)-2-fluoro-5-isopropyl-N-((4-((1-methylazetidin-3-yl)oxy)piperidin-1-yl)sulfonyl)benzamide] it was 39 nM.
The value for `O=C(NS(=O)(=O)N1CCC(O[C@@H]2CCNC2)CC1)c1cc(Cl)c(OCC2CCCC2)cc1F` (single isomer, unassigned) [Example 36, 2,2,2-trifluoroacetate] was 200 nM; that for `O=C(NS(=O)(=O)c1c(F)cccc1F)c1cc(Cl)c(OCC2CCCC2)cc1F` [Example 79, 5-chloro-4-(cyclopentylmethoxy)-N-((2,6-difluorophenyl)sulfonyl)-2-fluorobenzamide] was 100 nM; that for `COC[C@H](C)S(=O)(=O)NC(=O)c1cc(Cl)c(OCC2CCCC2)cc1F` (single isomer, unassigned) [Example 248] was 760 nM.
As for `CN(C)C1CCCN(c2cc(F)c(S(=O)(=O)NC(=O)c3cc(Cl)c(OCC4CCCC4)cc3F)c(F)c2)C1` (centres unmarked) [Example 62, 5-chloro-4-(cyclopentylmethoxy)-N-((4-(3-(dimethylamino)piperidin-1-yl)-2,6-difluorophenyl)sulfonyl)-2-fluorobenzamide formate], the IC50 was 17 nM.
As to `COc1ccc2nc(NS(=O)(=O)c3ccc(N[C@H]4CCCC[C@@H]4N(C)C)cc3F)sc2c1` [Example 201, 4-(((1S,2S)-2-(dimethylamino)cyclohexyl)amino)-2-fluoro-N-(6-methoxybenzo[d]thiazol-2-yl)benzenesulfonamide], the IC50 is 370 nM.
In the case of `O=C(NS(=O)(=O)c1cc(Cl)ccc1F)c1cc(Cl)c(OCC2CCCC2)cc1F` [Example 80, 5-chloro-N-((5-chloro-2-fluorophenyl)sulfonyl)-4-(cyclopentylmethoxy)-2-fluorobenzamide], the IC50 is 700 nM.
Regarding `Cn1nccc1COc1ccc(S(=O)(=O)NC(=O)c2cc(Cl)c(OCC3CCCC3)cc2F)cc1` [Example 315, 5-chloro-4-(cyclopentylmethoxy)-2-fluoro-N-((4-((1-methyl-1H-pyrazol-5-yl)methoxy)phenyl)sulfonyl)benzamide], the IC50 stood at 47 nM.
The value for `O=C(NS(=O)(=O)c1ccc(Oc2ccc(Cl)cc2)cc1)c1cc(Cl)c(OCC2CCCC2)cc1F` [Example 288, 5-chloro-N-((4-(4-chlorophenoxy)phenyl)sulfonyl)-4-(cyclopentylmethoxy)-2-fluorobenzamide] was 490 nM.
On to `CN(C)[C@H]1CCCC[C@@H]1Nc1cc(F)c(S(=O)(=O)Nc2nc3ccc(OCC4CCCC4)cc3s2)cc1Cl` [Example 202, 5-chloro-N-(6-(cyclopentylmethoxy)benzo[d]thiazol-2-yl)-4-(((1S,2S)-2-(dimethylamino)cyclohexyl)amino)-2-fluorobenzenesulfonamide], for which the IC50 came out at 22 nM.
In the case of `O=C(NS(=O)(=O)Cc1ccc2ncccc2c1)c1cc(Cl)c(OCC2CCCC2)cc1F` [Example 273, 5-chloro-4-(cyclopentylmethoxy)-2-fluoro-N-((quinolin-6-ylmethyl)sulfonyl)benzamide] it was 230 nM; in that of `NCCCOc1ccc(S(=O)(=O)NC(=O)c2cc(Cl)c(OCC3CCCC3)cc2F)cc1` [Example 314, N-((4-(3-aminopropoxy)phenyl)sulfonyl)-5-chloro-4-(cyclopentylmethoxy)-2-fluorobenzamide], 310 nM; in that of `Cc1cccc(COc2ccc(S(=O)(=O)NC(=O)c3cc(Cl)c(OCC4CCCC4)cc3F)cc2)c1` [Example 260, 5-chloro-4-(cyclopentylmethoxy)-2-fluoro-N-((4-((3-methylbenzyl)oxy)phenyl)sulfonyl)benzamide], 200 nM.
In the case of `CC(C)(C)OC(=O)C1CC2C(C1)C2NS(=O)(=O)NC(=O)c1cc(Cl)c(OCC2CCCC2)cc1F` (centres unmarked) [Example 327, tert-butyl 6-((N-(5-chloro-4-(cyclopentylmethoxy)-2-fluorobenzoyl)-sulfamoyl)amino)bicyclo[3.1.0]hexane-3-carboxylate] it was 920 nM; in that of `CN(C)[C@H]1CCCC[C@@H]1Oc1ccc(S(=O)(=O)Nc2ccc(Oc3ccc(Cl)cc3)cn2)c(F)c1` [Example 258, N-(5-(4-chlorophenoxy)pyridin-2-yl)-4-(((1S,2S)-2-(dimethylamino)cyclohexyl)oxy)-2-fluorobenzenesulfonamide], 830 nM.
In the case of `COc1ccc(COc2ccc(S(=O)(=O)NC(=O)c3cc(Cl)c(OCC4CCCC4)cc3F)cc2)cc1` [Example 309, 5-chloro-4-(cyclopentylmethoxy)-2-fluoro-N-((4-((4-methoxybenzyl)oxy)phenyl)sulfonyl)benzamide] it was 120 nM; in that of `O=C(NS(=O)(=O)c1ccc(OCC2CCCN2)cc1)c1cc(Cl)c(OCC2CCCC2)cc1F` (centres unmarked) [Example 305, 5-chloro-4-(cyclopentylmethoxy)-2-fluoro-N-((4-(pyrrolidin-2-ylmethoxy)phenyl)sulfonyl)benzamide], 360 nM.
For the molecule `O=C(NS(=O)(=O)C1CC12CCC2)c1cc(Cl)c(OCC2CCCC2)cc1F` (centres unmarked) [Example 256, 5-chloro-4-(cyclopentylmethoxy)-2-fluoro-N-(spiro[2.3]hexan-1-ylsulfonyl)benzamide], the IC50 is 13 nM.
Regarding `O=C(NS(=O)(=O)N1CCC(OC2CNC2)CC1)c1cc(C2CC2)c(OCC2CCCC2)cc1F` [Example 47, N-((4-(azetidin-3-yloxy)piperidin-1-yl)sulfonyl)-4-(cyclopentylmethoxy)-5-cyclopropyl-2-fluorobenzamide], the IC50 amounted to 36 nM.
Turning to `O=C(NS(=O)(=O)N1CCC(OC2CCNC2)CC1)c1cc(C2CC2)c(OCC2CCCC2)cc1F` (stereo in doubt) [Example 30, (S)-4-(cyclopentylmethoxy)-5-cyclopropyl-2-fluoro-N-((4-(pyrrolidin-3-yloxy)piperidin-1-yl)sulfonyl)benzamide 2,2,2-trifluoroacetate], the IC50 worked out at 16 nM.
In the case of `O=S(=O)(Nc1noc2cc(OCC3CCCC3)c(C3CC3)cc12)N1CCC(O[C@H]2CCNC2)CC1` (single isomer, unassigned) [Example 92, 2,2,2-trifluoroacetate] it was 69 nM.
